Source: patent US20100130621A1, “USE OF HYDROXYTYROSOL AS ANTI-AGING AGENT” (DSM IP ASSETS B.V., priority 2007, published 2010)

Assays:
PGC-1α = assay: Western blot analysis of PGC-1α protein level in adipocytes; format: cell-based, murine; conditions: 3T3-L1 adipocytes, 1.0 μM; bell-shape effect from 0.1 to 10.0 μM; mean±SE
Procedure: Murine 3T3-L1 pre-adipocytes (American Type Culture Collection) were cultured in Dulbecco's Modified Eagle's Medium (DMEM) supplemented with 10% fetal bovine serum and allowed to reach confluence. Differentiation of pre-adipocytes was initiated with 1 μM insulin, 0.25 μM dexamethasone and 0.5 mM 3-isobutyl-1-methylxanthine in DMEM, supplemented with 10% fetal bovine serum. After 48 h, the culture medium was replaced with DMEM supplemented with 10% fetal bovine serum and 1 μM insulin. The culture medium was changed every other day with DMEM containing 10% fetal bovine serum. […] After treatment, cells were washed twice with ice-cold PBS, lysed in sample buffer (62.5 mM Tris-Cl pH 6.8, 2% SDS, 5 mM DTT) at room temperature and vortexed. Cell lysates were then boiled for 5 minutes and cleared by centrifugation (13,000 rpm, 10 minutes at 4° C.). Protein concentration was determined using the Bio-Rad DC protein assay. The soluble lysates (10 μg per lane) were subjected to 10% SDS-PAGE, proteins were then transferred to nitrocellulose membranes and blocked with 5% non-fat milk/TBST for 1 h at room temperature. […] Western blots were developed using ECL (Roche Manheim, Germany) and quantified by scanning densitometry.

[1] = test system: mitochondrial electron transport complex I; assay: Western blot of mitochondrial electron transport complex I protein in adipocytes; format: cell-based, murine; conditions: 3T3-L1 adipocytes, 48 hrs
Procedure: Murine 3T3-L1 pre-adipocytes (American Type Culture Collection) were cultured in Dulbecco's Modified Eagle's Medium (DMEM) supplemented with 10% fetal bovine serum and allowed to reach confluence. Differentiation of pre-adipocytes was initiated with 1 μM insulin, 0.25 μM dexamethasone and 0.5 mM 3-isobutyl-1-methylxanthine in DMEM, supplemented with 10% fetal bovine serum. After 48 h, the culture medium was replaced with DMEM supplemented with 10% fetal bovine serum and 1 μM insulin. The culture medium was changed every other day with DMEM containing 10% fetal bovine serum. […] After treatment, cells were washed twice with ice-cold PBS, lysed in sample buffer (62.5 mM Tris-Cl pH 6.8, 2% SDS, 5 mM DTT) at room temperature and vortexed. Cell lysates were then boiled for 5 minutes and cleared by centrifugation (13,000 rpm, 10 minutes at 4° C.). Protein concentration was determined using the Bio-Rad DC protein assay. The soluble lysates (10 μg per lane) were subjected to 10% SDS-PAGE, proteins were then transferred to nitrocellulose membranes and blocked with 5% non-fat milk/TBST for 1 h at room temperature. Membranes were incubated with primary antibodies directed against PPAR-γ (1:1000), PGC-1α (1:1000), α-tubulin (1:10 000), Complex I (1:2000), Complex II (1:2000), Complex III (1:2000) and Complex V (1:2000) in 5% milk/TBST at 4° C. overnight. After washing membranes with TBST three times, membranes were incubated with horseradish peroxidase-conjugated secondary antibody for 1 h at room temperature. Western blots were developed using ECL (Roche Manheim, Germany) and quantified by scanning densitometry.

skeletal muscle = conditions: oral administration of 1 g per day; cited from earlier work

SMILES	PGC-1α protein expression (maximum), vs. control (PGC-1α)	mitochondrial electron transport complex I protein, vs. control ([1]; 0.1 μM)	mitochondrial electron transport complex I protein, vs. control ([1]; 1.0 μM)	mitochondrial electron transport complex I protein, vs. control ([1]; 10.0 μM)	mitochondrial biogenesis in skeletal muscle (skeletal muscle)
OCCc1ccc(O)c(O)c1 [hydroxytyrosol, 3,4-dihydroxyphenylethanol]	205±52%	131±16%	163±31%	138±21%	
O=C1O[C@H]([C@@H](O)CO)C(O)=C1O [Vitamin C]					decreases mitochondrial biogenesis
